# Measurements taken from patent US20230382915A1, “GCN2 AND PERK KINASE INHIBITORS AND METHODS OF USE THEREOF” (Deciphera Pharmaceuticals, LLC, priority 2021, published 2023).
# Assays:
# CCRF-CEM leukemia cells = assay: CCRF-CEM ASNase cell proliferation assay; type: cell-based; details: Homo sapiens, 1 mU/mL ASNase, 72 h
# Protocol: CCRF-CEM leukemia cells (catalog #CCL-116) were obtained from the American Type Culture Collect (ATTC, Manassas, VA). Cells were grown in RPMI-1640 medium supplemented with 10% heat-inactivated fetal bovine serum (Invitrogen, Carlsbad, CA) and 1% Penicillin/Streptomycin/L-Glutamine at 37° C., 5% CO2, and 95% humidity. Cells were expanded until reaching one million cells per mL at which time they are subcultured or harvested for assay use. Ten thousand cells per well in 200 μL RPMI-1640 supplemented with 10% heat-inactivated fetal bovine serum and 1% Penicillin/Streptomycin were dispensed into a 96-well black clear bottom plate. A serial dilution of test compound and 1 mU/mL ASNase was added in triplicate and plates were incubated for 72 h at 37° C., 5% CO2, and 95% humidity. At the end of the incubation, 40 μL of a […] solution of resazurin (Sigma, St. Louis, MO) in PBS was added to each well of the plate and plates were incubated for an additional 6 h at 37° C., 5% CO2, and 95% humidity. Plates were read on a Synergy2 or equivalent reader (Biotek, Winooski VT) using an excitation of 540 nm and an emission of 600 nm. Data was analyzed using GraphPad Prism software (GraphPad, San Diego, CA) to calculate IC50 values.
# [1] = system: LoVo colorectal xenograft; assay: LoVo xenograft efficacy model; type: in vivo, mice; details: 5 mg/kg BID, 22 days of dosing
# Protocol: The LoVo xenograft model was performed in compliance with all the laws, regulations and guidelines of the National Institutes of Health (NIH) and with the approval of the Animal Care and Use Committee of Crown Bioscience (Taicang, China), an AAALAC accredited facility. Food and water were provided ad libitum. […] Female Balb/c nude mice (5-9 weeks old) were inoculated subcutaneously just below the right high axilla with ten million cells in Dulbecco's Phosphate Buffered Saline, using a 27-gauge needle and syringe. When tumor burdens reached 100 mm 3 on average on day 6, mice were randomly assigned into groups such that the mean tumor burden for all groups was within 10% of the overall mean tumor burden for the study population. Groups were treated on days 6-27 as follows: vehicle control (dosed orally) (n=9); Compound 2 dosed orally at 5 mg/kg BID (n=9); Compound 2 dosed orally at 1 mg/kg BID. Tumor volume and body weights were measured three time per week. Tumor burden (mg) was estimated from caliper measurements by the formula: tumor burden (mg=mm 3)=(length×width 2)/2.
# [2] = system: H2030 solid tumor spheroids; assay: Spheroid proliferation assay, H2030; type: cell-based; details: for spheroid growth, combination treatment: 96 h
# Protocol: Non Small Cell Lung Cancer (NSCLC) cell lines H358 (catalog #CRL-5807) and H2030 (catalog #CRL-5914), and fibrosarcoma line HT-1080 (catalog […]) were obtained from the American Type Culture Collect (ATTC, Manassas, VA). Cells were grown in RPMI-1640 medium supplemented with 10% heat-inactivated fetal bovine serum and 1% Penicillin/Streptomycin/L-Glutamine (Invitrogen, Carlsbad, CA) at 37° C., 5% CO2, and 95% humidity and maintained at 50-80% confluency until use. 500-1000 cells were plated in 96-well ultra-low attachment plates (Corning, Glendale, AZ) with complete growth media at 80 μL/well and incubated overnight at 37° C., 5% CO2, and 95% humidity to form spheroids. The next day, serial dilutions of test compounds were prepared in complete growth media and 20 μL/well media containing compound titers was added to spheroids in triplicate. […] At the end of the incubation, spheroids were lysed with 100 μL/well CellTiter-Glo 3D Viability Assay (Promega, Madison, WI) and luminescence was detected using Synergy2 or equivalent reader (Biotek, Winooski, VT). Data was analyzed using GraphPad Prism software (GraphPad, San Diego, CA) to calculate IC50 values.
# PERK enzyme = PERK enzyme (Homo sapiens (Human), UniProt Q9NZJ5); assay: Recombinant PERK activation assay; type: biochemical; details: FIG. 9B
# PERK enzyme, sequence (Q9NZJ5 30-1116): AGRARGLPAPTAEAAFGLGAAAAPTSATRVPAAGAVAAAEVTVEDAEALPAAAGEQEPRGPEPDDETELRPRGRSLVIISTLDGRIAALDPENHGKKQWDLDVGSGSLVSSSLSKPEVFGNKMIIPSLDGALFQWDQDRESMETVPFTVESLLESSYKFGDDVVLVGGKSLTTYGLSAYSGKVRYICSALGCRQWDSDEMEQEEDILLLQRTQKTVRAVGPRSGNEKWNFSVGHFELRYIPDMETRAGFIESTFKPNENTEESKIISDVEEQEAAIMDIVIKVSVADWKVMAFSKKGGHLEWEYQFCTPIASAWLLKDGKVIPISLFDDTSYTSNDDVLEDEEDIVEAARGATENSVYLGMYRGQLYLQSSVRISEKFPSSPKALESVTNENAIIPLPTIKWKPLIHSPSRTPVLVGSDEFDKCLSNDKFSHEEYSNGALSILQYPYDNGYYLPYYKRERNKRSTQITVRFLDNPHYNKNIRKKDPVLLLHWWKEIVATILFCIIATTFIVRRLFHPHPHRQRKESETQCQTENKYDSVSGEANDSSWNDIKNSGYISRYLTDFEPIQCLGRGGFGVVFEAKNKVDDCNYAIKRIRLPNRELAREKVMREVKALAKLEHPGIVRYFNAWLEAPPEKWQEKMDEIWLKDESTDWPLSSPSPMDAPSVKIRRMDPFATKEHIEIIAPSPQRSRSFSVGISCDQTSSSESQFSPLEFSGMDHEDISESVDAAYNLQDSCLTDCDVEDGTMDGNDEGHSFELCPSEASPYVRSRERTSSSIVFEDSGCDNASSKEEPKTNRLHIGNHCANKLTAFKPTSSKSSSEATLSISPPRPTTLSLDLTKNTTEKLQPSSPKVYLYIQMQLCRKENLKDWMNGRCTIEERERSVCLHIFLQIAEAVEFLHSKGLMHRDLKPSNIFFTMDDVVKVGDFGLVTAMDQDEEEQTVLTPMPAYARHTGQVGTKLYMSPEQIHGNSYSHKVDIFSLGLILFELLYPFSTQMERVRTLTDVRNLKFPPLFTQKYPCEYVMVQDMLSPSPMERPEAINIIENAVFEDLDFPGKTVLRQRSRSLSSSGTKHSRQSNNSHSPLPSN
# Protocol: To measure Compound 2-mediated PERK modulation, 200 nM PERK enzyme (Enzo, Farmingdale, NY) was incubated with Compound 2 titer for 30 min at RT. Following incubation, 200 nM substrate (GFP-eIF2α) (ThermoFisher Scientific, Waltham, MA) and 1 mM ATP was added to the mixture and incubated for 60 min at RT. Reaction was stopped by the addition of 10 mM EDTA and phosphorylated eiF2a substrate was detected using 2 nM LanthaScreen Tb-anti-peIF2α (pSer52) antibody (ThermoFisher Scientific, Waltham, MA) then incubated in the dark. After a 60 min incubation at room temperature, TR-FRET was monitored using an excitation wavelength of 340 nm and emission wavelengths of 490 nm and 520 nm.
compound,measurement,setting,value
"Cn1cc(-c2cccc(NS(=O)(=O)c3cc(Cl)cc(CO)c3Cl)c2F)c2c(N)ncnc21 [Example 2, N-(3-(4-amino-7-methyl-7H-pyrrolo[2,3-d]pyrimidin-5-yl)-2-fluorophenyl)-2,5-dichloro-3-(hydroxymethyl)benzenesulfonamide]",IC50,CCRF-CEM leukemia cells,≤ 0.1 µM
same,mean tumor growth inhibition,[1],69%
same,"cell regression, single agent","[2]; 5 days, FIG. 11A",50%
same,"spheroid growth, combination treatment","[2]; with 3.3 nM sotorasib, FIG. 12A",greater spheroid regression compared to either single agent
same,"spheroid growth, combination treatment","[2]; with 3.7 nM trametinib, FIG. 12C",greater spheroid regression compared to either single agent
same,concentrations at which PERK enzyme is activated,PERK enzyme,0.05 to 6 nM
same,concentrations at which recombinant PERK activity is inhibited,PERK enzyme,above 3 μM
same,"activation of PERK enzyme, % of control",PERK enzyme; at 0.05-6 nM,up to 250 % of control
